Among the data in patent US9850225B2, “Compounds useful as immunomodulators” (BRISTOL-MYERS SQUIBB COMPANY, priority 2014, dated 2017) are IC50 values, retold here.

Where two headings read alike, the source gives them in different places.

The test concerns the target PD-1/PD-L1 interaction (PD-1-Ig / PD-L1-His) (Homo sapiens (Human), UniProt Q9NZQ7). The experiment in a line: PD-1/PD-L1 Homogenous Time-Resolved Fluorescence (HTRF) binding assay. The conditions noted are these: PD-1/PD-L1 HTRF binding assay, read-out: Range or IC50. The method in brief:
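HTRF detection used 1 nM europium-cryptate anti-Ig and 20 nM APC anti-His. Compounds first saw 10 nM PD-L1-His for 15 min, and 20 nM PD-1-Ig was then added for another 15 min. Buffer was dPBS plus 0.1% BSA and 0.05% Tween-20. All concentrations are final.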
(In general: Time-resolved FRET reads energy transfer from a long-lived donor to a nearby acceptor.)

PD-1/PD-L1 interaction (PD-1-Ig / PD-L1-His), sequence (Q9NZQ7 other isoform, or with tags, fused parts or gaps): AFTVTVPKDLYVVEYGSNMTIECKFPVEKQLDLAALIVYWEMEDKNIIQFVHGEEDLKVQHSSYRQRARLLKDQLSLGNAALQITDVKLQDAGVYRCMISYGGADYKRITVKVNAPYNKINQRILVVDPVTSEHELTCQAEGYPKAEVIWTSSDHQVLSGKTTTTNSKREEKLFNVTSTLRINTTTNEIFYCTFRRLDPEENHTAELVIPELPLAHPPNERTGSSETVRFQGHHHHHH

In the case of `Cc1c(COc2cc(OCc3cccc(C#N)c3)c(CNC(C)(Cc3c[nH]cn3)C(=O)O)cc2Cl)cccc1-c1ccc2c(c1)OCCO2` (stereo not drawn) [Example 1191, 2-((5-chloro-2-((3-cyanobenzyl)oxy)-4-((3-(2,3-dihydrobenzo[b][1,4]dioxin-6-yl)-2-methylbenzyl)oxy)benzyl)amino)-3-(1H-imidazol-4-yl)-2-methylpropanoic acid], the 50% inhibitory concentration (IC50) (in general, the concentration that gives 50% inhibition) (value given as range class) was in the range of 0.0006 to 0.01 µM.

As for `Cc1c(COc2cc(OCc3cccc(C#N)c3)c(CNC(Cc3c[nH]c4ccccc34)C(=O)O)cc2Cl)cccc1-c1ccc2c(c1)OCCO2` (stereo not drawn) [Example 1192, 2-((5-chloro-2-((3-cyanobenzyl)oxy)-4-((3-(2,3-dihydrobenzo[b][1,4]dioxin-6-yl)-2-methylbenzyl)oxy)benzyl)amino)-3-(1H-indol-3-yl)propanoic acid], where the note is “value given as range class”, the IC50 was 0.1 to 20 µM. On the same count and under the same terms, the figure for `CC[C@@H](NCc1cc(Cl)c(OCc2cccc(-c3ccc4c(c3)OCCO4)c2C)cc1OCc1cccc(C#N)c1)C(=O)O` [Example 1193, (R)-2-((5-chloro-2-((3-cyanobenzyl)oxy)-4-((3-(2,3-dihydrobenzo[b][1,4]dioxin-6-yl)-2-methylbenzyl)oxy)benzyl)amino)butanoic acid] is 0.0006 to 0.01 µM; for `Cc1c(COc2cc(OCc3cccc(C#N)c3)c(CN[C@H](COCc3ccccc3)C(=O)O)cc2Cl)cccc1-c1ccc2c(c1)OCCO2` [Example 1194, (R)-3-(benzyloxy)-2-((5-chloro-2-((3-cyanobenzyl)oxy)-4-((3-(2,3-dihydrobenzo[b][1,4]dioxin-6-yl)-2-methylbenzyl)oxy)benzyl)amino)propanoic acid] it is 0.01 to 0.1 µM. The same measure, in the same setting: the figure for `Cc1c(COc2cc(OCc3cccc(C#N)c3)c(CN[C@@H](C(=O)O)[C@H](C)O)cc2Cl)cccc1-c1ccc2c(c1)OCCO2` [Example 1195, (2R,3S)-2-((5-chloro-2-((3-cyanobenzyl)oxy)-4-((3-(2,3-dihydrobenzo[b][1,4]dioxin-6-yl)-2-methylbenzyl)oxy)benzyl)amino)-3-hydroxybutanoic acid] is 0.0006 to 0.01 µM; for `Cc1c(COc2cc(OCc3cccc(C#N)c3)c(CN3CCCC[C@@H]3C(=O)O)cc2Cl)cccc1-c1ccc2c(c1)OCCO2` [Example 1198, (R)-1-(5-chloro-2-((3-cyanobenzyl)oxy)-4-((3-(2,3-dihydrobenzo[b][1,4]dioxin-6-yl)-2-methylbenzyl)oxy)benzyl)piperidine-2-carboxylic acid] it is 0.0006 to 0.01 µM. The same measure, in the same setting: the figure for `Cc1c(COc2cc(OCc3cccc(C#N)c3)c(CN[C@@H](CCS(C)(=O)=O)C(=O)O)cc2Cl)cccc1-c1ccc2c(c1)OCCO2` [Example 1200, (S)-2-((5-chloro-2-((3-cyanobenzyl)oxy)-4-((3-(2,3-dihydrobenzo[b][1,4]dioxin-6-yl)-2-methylbenzyl)oxy)benzyl)amino)-4-(methylsulfonyl)butanoic acid] is 0.01 to 0.1 µM; for `CC[C@H](NCc1cc(Cl)c(OCc2cccc(-c3ccc4c(c3)OCCO4)c2C)cc1OCc1cccc(C#N)c1)C(=O)O` [Example 1201, (S)-2-((5-chloro-2-((3-cyanobenzyl)oxy)-4-((3-(2,3-dihydrobenzo[b][1,4]dioxin-6-yl)-2-methylbenzyl)oxy)benzyl)amino)butanoic acid] it is 0.0006 to 0.01 µM; for `CSCC[C@H](NCc1cc(Cl)c(OCc2cccc(-c3ccc4c(c3)OCCO4)c2C)cc1OCc1cccc(C#N)c1)C(=O)O` [Example 1202, (S)-2-((5-chloro-2-((3-cyanobenzyl)oxy)-4-((3-(2,3-dihydrobenzo[b][1,4]dioxin-6-yl)-2-methylbenzyl)oxy)benzyl)amino)-4-(methylthio)butanoic acid] it is 0.01 to 0.1 µM. For `Cc1c(COc2cc(OCc3cccc(C#N)c3)c(CN(C)[C@@H](CC(=O)O)C(=O)O)cc2Cl)cccc1-c1ccc2c(c1)OCCO2` [Example 1203, (S)-2-((5-chloro-2-((3-cyanobenzyl)oxy)-4-((3-(2,3-dihydrobenzo[b][1,4]dioxin-6-yl)-2-methylbenzyl)oxy)benzyl)(methyl)amino)succinic acid], where the note is “value given as range class”, the half-maximal inhibitory concentration (IC50) lay in the range of 0.0006 to 0.01 µM. On to `Cc1c(COc2cc(OCc3cccc(C#N)c3)c(CN3CC[C@@H](O)[C@H]3C(=O)O)cc2Cl)cccc1-c1ccc2c(c1)OCCO2` [Example 1204, (2S,3R)-1-(5-chloro-2-((3-cyanobenzyl)oxy)-4-((3-(2,3-dihydrobenzo[b][1,4]dioxin-6-yl)-2-methylbenzyl)oxy)benzyl)-3-hydroxypyrrolidine-2-carboxylic acid], for which the half-maximal inhibitory concentration (IC50) (value given as range class) was 0.0006 to 0.01 µM.

`Cc1c(COc2cc(OCc3cccc(C#N)c3)c(CN[C@H](CCO)C(=O)O)cc2Cl)cccc1-c1ccc2c(c1)OCCO2` [Example 1205, (R)-2-((5-chloro-2-((3-cyanobenzyl)oxy)-4-((3-(2,3-dihydrobenzo[b][1,4]dioxin-6-yl)-2-methylbenzyl)oxy)benzyl)amino)-4-hydroxybutanoic acid]: the half-maximal inhibitory concentration (IC50) (numeric value) amounted to 0.00271 µM. Regarding `Cc1c(COc2cc(OCc3cccc(C#N)c3)c(CN[C@H](Cc3cscn3)C(=O)O)cc2Cl)cccc1-c1ccc2c(c1)OCCO2` [Example 1206, (R)-2-((5-chloro-2-((3-cyanobenzyl)oxy)-4-((3-(2,3-dihydrobenzo[b][1,4]dioxin-6-yl)-2-methylbenzyl)oxy)benzyl)amino)-3-(thiazol-4-yl)propanoic acid], the half-inhibitory concentration (IC50) (value given as range class) fell in the range of 0.0006 to 0.01 µM. Same read-out and setting: the figure for `Cc1c(COc2cc(OCc3cccc(C#N)c3)c(CN[C@@H](Cc3cncn3C)C(=O)O)cc2Cl)cccc1-c1ccc2c(c1)OCCO2` [Example 1207, (S)-2-((5-chloro-2-((3-cyanobenzyl)oxy)-4-((3-(2,3-dihydrobenzo[b][1,4]dioxin-6-yl)-2-methylbenzyl)oxy)benzyl)amino)-3-(1-methyl-1H-imidazol-5-yl)propanoic acid] is 0.01 to 0.1 µM. `Cc1c(COc2cc(OCc3cccc(C#N)c3)c(CN[C@@H](Cc3cscn3)C(=O)O)cc2Cl)cccc1-c1ccc2c(c1)OCCO2` [Example 1208, (S)-2-((5-chloro-2-((3-cyanobenzyl)oxy)-4-((3-(2,3-dihydrobenzo[b][1,4]dioxin-6-yl)-2-methylbenzyl)oxy)benzyl)amino)-3-(thiazol-4-yl)propanoic acid]: for the setting “value given as range class”, the 50% inhibitory concentration (IC50) was 0.0006 to 0.01 µM. Regarding `Cc1c(COc2cc(OCc3cccc(C#N)c3)c(CNC(C(=O)O)C(C)(C)O)cc2Cl)cccc1-c1ccc2c(c1)OCCO2` (stereo not drawn) [Example 1210, 2-((5-chloro-2-((3-cyanobenzyl)oxy)-4-((3-(2,3-dihydrobenzo[b][1,4]dioxin-6-yl)-2-methylbenzyl)oxy)benzyl)amino)-3-hydroxy-3-methylbutanoic acid], the concentration for half-maximal inhibition (IC50) (numeric value) came to 0.0127 µM. With `Cc1c(COc2cc(OCc3cccc(C#N)c3)c(CNC(C(=O)O)c3c[nH]c4ccccc34)cc2Cl)cccc1-c1ccc2c(c1)OCCO2` (stereo not drawn) [Example 1211, 2-((5-chloro-2-((3-cyanobenzyl)oxy)-4-((3-(2,3-dihydrobenzo[b][1,4]dioxin-6-yl)-2-methylbenzyl)oxy)benzyl)amino)-2-(1H-indol-3-yl)acetic acid], under “value given as range class”, the IC50 was in the range of 0.01 to 0.1 µM. Same read-out and setting: to `Cc1c(COc2cc(OCc3cccc(C#N)c3)c(CNCC(O)CN3CCOCC3)cc2Cl)cccc1-c1ccc2c(c1)OCCO2` (stereo not drawn) [Example 1212, 3-((4-chloro-5-((3-(2,3-dihydrobenzo[b][1,4]dioxin-6-yl)-2-methylbenzyl)oxy)-2-(((2-hydroxy-3-morpholinopropyl)amino)methyl)phenoxy)methyl)benzonitrile] belongs 0.0006 to 0.01 µM; to `Cc1c(COc2cc(OCc3cccc(C#N)c3)c(CN3CCOCC3C(=O)O)cc2Cl)cccc1-c1ccc2c(c1)OCCO2` (stereo not drawn) [Example 1213, 4-(5-chloro-2-((3-cyanobenzyl)oxy)-4-((3-(2,3-dihydrobenzo[b][1,4]dioxin-6-yl)-2-methylbenzyl)oxy)benzyl)morpholine-3-carboxylic acid], 0.01 to 0.1 µM. Turning to `Cc1c(COc2cc(OCc3cccc(C#N)c3)c(CNC(CO)(C(=O)O)C(C)C)cc2Cl)cccc1-c1ccc2c(c1)OCCO2` (stereo not drawn) [Example 1214, 2-((5-chloro-2-((3-cyanobenzyl)oxy)-4-((3-(2,3-dihydrobenzo[b][1,4]dioxin-6-yl)-2-methylbenzyl)oxy)benzyl)amino)-2-(hydroxymethyl)-3-methylbutanoic acid], the IC50 (value given as range class) was in the range of 0.0006 to 0.01 µM. The same measure, in the same setting: the figure for `Cc1c(COc2cc(OCc3cccc(C#N)c3)c(CN3C[C@H](F)C[C@H]3C(=O)O)cc2Cl)cccc1-c1ccc2c(c1)OCCO2` [Example 1215, (2S,4R)-1-(5-chloro-2-((3-cyanobenzyl)oxy)-4-((3-(2,3-dihydrobenzo[b][1,4]dioxin-6-yl)-2-methylbenzyl)oxy)benzyl)-4-fluoropyrrolidine-2-carboxylic acid] is 0.01 to 0.1 µM.

`Cc1c(COc2cc(OCc3cccc(C#N)c3)c(CNC(CC(F)(F)F)C(=O)O)cc2Cl)cccc1-c1ccc2c(c1)OCCO2` (stereo not drawn) [Example 1216, 2-((5-chloro-2-((3-cyanobenzyl)oxy)-4-((3-(2,3-dihydrobenzo[b][1,4]dioxin-6-yl)-2-methylbenzyl)oxy)benzyl)amino)-4,4,4-trifluorobutanoic acid]: the 50% inhibitory concentration (IC50) (value given as range class) fell in the range of 0.1 to 20 µM. Regarding `Cc1c(COc2cc(OCc3cccc(C#N)c3)c(CN[C@@H](Cc3cccc(C#N)c3)C(=O)O)cc2Cl)cccc1-c1ccc2c(c1)OCCO2` [Example 1217, (S)-2-((5-chloro-2-((3-cyanobenzyl)oxy)-4-((3-(2,3-dihydrobenzo[b][1,4]dioxin-6-yl)-2-methylbenzyl)oxy)benzyl)amino)-3-(3-cyanophenyl)propanoic acid], the half-maximal inhibitory concentration (IC50) (value given as range class) is 0.01 to 0.1 µM. On to `Cc1c(COc2cc(OCc3cccc(C#N)c3)c(CNC(CO)(Cc3ccccc3)C(=O)O)cc2Cl)cccc1-c1ccc2c(c1)OCCO2` (stereo not drawn) [Example 1218, 2-benzyl-2-((5-chloro-2-((3-cyanobenzyl)oxy)-4-((3-(2,3-dihydrobenzo[b][1,4]dioxin-6-yl)-2-methylbenzyl)oxy)benzyl)amino)-3-hydroxypropanoic acid], for which the IC50 (numeric value) turned out to be 0.0101 µM.
